Reference: ChEMBL document CHEMBL4373694 (J Med Chem, 2019)
Activity calls are given as the source filed them. No cut-off for these calls is given here.

Assays:
[1] = Inhibition of 20S proteasome beta 5i/20S proteasome beta 1i in human PBMC cell lysate assessed as reduction in chymotrypsin-like activity pre-incubated for 30 mins followed by Meo-Suc-GLF-AM substrate addition and measured after 30 mins by fluorescence assay; assay type: subcellular
[2] = Inhibition of 20S proteasome beta 1c derived from human erythrocytes preincubated for 1 hr using Z-nLPnLD-Glo peptide as substrate by proteasome-glo caspase-like assay
[3] = Inhibition of human 20S proteasome beta 5i preincubated for 1 hr followed by fluorescence based assay
[4] = Inhibition of human 20S proteasome beta 1i
[5] = Inhibition of 20S proteasome beta 5c (unknown origin) preincubated for 1 hr followed by fluorescence based assay; design: species or system Homo sapiens
Homo sapiens [6] = species: Homo sapiens; experiment: Selectivity ratio, ratio of IC50 for 20S proteasome beta 5c (unknown origin) to IC50 for human 20S proteasome beta 5i
Homo sapiens [7] = species: Homo sapiens; experiment: Inhibition of 20S proteasome beta 5i in human PBMC cells assessed as induction of PSMB6 expression at 100 nM after 3 to 72 hrs by RT-PCR analysis; assay type: cell-based
Homo sapiens [8] = species: Homo sapiens; experiment: Inhibition of 20S proteasome beta 5i in human PBMC cells assessed as induction of PSMB7 expression at 100 nM after 3 to 72 hrs by RT-PCR method; assay type: cell-based
Homo sapiens [9] = species: Homo sapiens; experiment: Selectivity ratio, ratio of IC50 for 20S proteasome beta 5c (unknown origin) to IC50 for human 20S proteasome beta 1i
Homo sapiens [10] = species: Homo sapiens; experiment: Inhibition of 20S proteasome beta 5i in human PBMC cells assessed as induction of PSMB5 expression at 100 nM after 3 to 72 hrs by RT-PCR analysis; assay type: cell-based
PBMC [11] = experiment: Cytotoxicity against human PBMC cells assessed as reduction in cell viability by CellTiter Glo assay; assay type: functional, cell-based
[12] = Cytotoxicity against human pDC assessed as reduction in cell viability by CellTiter Glo assay; assay type: functional
[13] = Cytotoxicity against anti-CD3/CD28-stimulated human CD4-positive T cells with CRISP/CAS9 20S proteasome beta 5i knockout assessed as reduction in cell viability measured on day 8 by CellTiter Glo assay relative to control; assay type: functional
[14] = (§1) Cytotoxicity against anti-CD3/CD28-stimulated human CD4-positive T cells with CRISP/CAS9 20S proteasome beta 5c knockout assessed as reduction in cell viability measured on day 8 by CellTiter Glo assay relative to control; assay type: functional
[15] = Cytotoxicity against human plasmablasts assessed as reduction in cell viability by CellTiter Glo assay; assay type: functional
Homo sapiens [16] = species: Homo sapiens; experiment: Selectivity ratio, ratio of IC50 for human 20S proteasome beta 1i to IC50 for 20S proteasome beta 5i (unknown origin)
Homo sapiens [17] = species: Homo sapiens; experiment: Selectivity ratio, ratio of IC50 for 20S proteasome beta 1c (unknown origin) to IC50 for human 20S proteasome beta 5i
Homo sapiens [18] = species: Homo sapiens; experiment: as §1; assay type: functional
PBMC [19] = experiment: Induction of apoptosis in human PBMC cells at 10 uM after 12 hrs by caspase 3,7-glo assay; assay type: functional, cell-based
Homo sapiens [20] = species: Homo sapiens; experiment: Inhibition of 20S proteasome beta 5i in human PBMC cells assessed as upregulation of 20S proteasome beta 5c level at 100 nM after 24 to 72 hrs by Western blot analysis; assay type: cell-based
PBMC [21] = experiment: Induction of ubiquitin accumulation in human PBMC cells at 100 nM after 6 hrs by Western blot analysis; assay type: functional, cell-based

Row | SMILES | IC50 [1] [nM] | IC50 [2] [nM] | IC50 [3] [nM] | IC50 [4] [nM] | IC50 [5] [nM] | Ratio IC50 (Homo sapiens [6]) | Ratio IC50 (Homo sapiens [9]) | also measured
1 | Cc1ccc(C[C@H](NC(=O)c2cc(Cc3ccccc3)on2)B2O[C@@H]3C[C@@H]4C[C@@H](C4(C)C)[C@]3(C)O2)c(C)c1 | 80 | > 20000 | 4.1 | 92 | 1300 | – | – | –
2 | O=C(N[C@@H](Cc1ccc(Cl)cc1)B(O)O)c1cn(Cc2ccccc2)nn1 | 2.3 | 530 | 0.54 | 3.9 | 46 | – | – | –
3 | COC[C@H](NC(=O)c1cc(C)on1)C(=O)N[C@H](C(=O)N[C@@H](CC(C)C)C(=O)[C@@]1(C)CO1)C1CC1 | – | 11000 | 2100 | 690 | 78 | 0.04 | 0.11 | inhibition (Homo sapiens [7]): Active; inhibition (Homo sapiens [8]): Active; inhibition (Homo sapiens [10]): Active
4 | CC(C)C[C@H](NC(=O)c1nnc(Cc2ccccc2)[nH]1)B(O)O | 200 | 61 | 19 | 6.3 | 350 | – | – | –
5 | Cc1ccc(C[C@H](NC(=O)c2cn(-c3ccccc3)nn2)B2O[C@@H]3C[C@@H]4C[C@@H](C4(C)C)[C@]3(C)O2)c(C)c1 | 6.9 | > 20000 | 0.68 | 50 | 270 | – | – | –
6 | O=C(N[C@@H](Cc1ccc(Cl)cc1)B(O)O)c1cnn(Cc2ccccc2)c1 | 470 | > 20000 | 87 | 110 | 7700 | – | – | –
7 | O=C(N[C@@H](Cc1ccc(Cl)cc1)B(O)O)c1cn(-c2ccccc2)nn1 | 3.2 | 5500 | 0.91 | 15 | 64 | – | – | –
8 | CC(C)C[C@H](NC(=O)[C@H](Cc1ccccc1)NC(=O)c1cnccn1)B(O)O [BORTEZOMIB] | – | 32 | – | 7.9 | – | – | – | IC50 (PBMC [11]): 2.7 nM; IC50 [12]: 5.2 nM; fold change (FC) [13]: 3; fold change (FC) [14]: 3; IC50 [15]: 3.9 nM; inhibition (Homo sapiens [7]): Active; inhibition (Homo sapiens [8]): Active; inhibition (Homo sapiens [10]): Active
9 | COc1ccc(C(=O)NCCn2cc(C(=O)N[C@@H](CC(C)C)B(O)O)nn2)c(OC)c1OC | 34 | 1400 | 2.2 | 8.1 | 37 | 17 | 5.2 | Ratio IC50 (Homo sapiens [16]): 5.2; IC50 (PBMC [11]): 100 nM; IC50 [12]: 22 nM; IC50 [15]: 54 nM; Ratio IC50 (Homo sapiens [17]): 640; inhibition (Homo sapiens [7]): Active; inhibition (Homo sapiens [8]): Active; inhibition (Homo sapiens [10]): Active
10 | C=CC(=O)N(CC(=O)N[C@@H](Cc1ccc(C)cc1C)B(O)O)c1ccccc1F | – | > 20000 | 8.1 | 2200 | 2400 | 283 to 296 | 1.1 | Ratio IC50 (Homo sapiens [16]): 247; IC50 (PBMC [11]): 5700 nM; IC50 [12]: 6000 nM; Activity (Homo sapiens [18]): Active; IC50 [15]: 670 nM; Ratio IC50 (Homo sapiens [17]): > 2400; inhibition (Homo sapiens [7]): Active; inhibition (Homo sapiens [8]): Active; Activity (PBMC [19]): inactive; inhibition (Homo sapiens [10]): Active; inhibition (Homo sapiens [20]): Active; Activity (PBMC [21]): inactive
11 | O=C(N[C@@H](Cc1ccc(Cl)cc1)B(O)O)c1cnn(-c2ccccc2)c1 | 130 | > 20000 | 6.8 | 12 | 3200 | – | – | –
12 | Cc1ccc(C[C@H](NC(=O)c2cn(Cc3ccccc3)nn2)B2O[C@@H]3C[C@@H]4C[C@@H](C4(C)C)[C@]3(C)O2)c(C)c1 | 11 | > 20000 | 1.2 | 17 | 420 | – | – | –
13 | CC(C)C[C@H](NC(=O)c1cn(C2CCCCC2)nn1)B(O)O | 60 | 480 | 4.1 | 0.85 | 2900 | 710 | 1300 to 3400 | Ratio IC50 (Homo sapiens [16]): 0.2; IC50 (PBMC [11]): 7300 nM; IC50 [12]: 3700 nM; IC50 [15]: 2900 nM; Ratio IC50 (Homo sapiens [17]): 120
14 | CC(C)C[C@H](NC(=O)c1cn(Cc2ccccc2)nn1)B(O)O | 45 | 71 | 4 | 0.55 | 890 | 220 to 710 | 1300 to 3400 | Ratio IC50 (Homo sapiens [16]): 0.14
15 | CC(C)C[C@H](NC(=O)c1ncn(Cc2ccccc2)n1)B(O)O | 8900 | > 20000 | 360 | 19 | > 10000 | – | – | –
16 | Cc1c(C(=O)N[C@@H](CC(C)C)B(O)O)nnn1-c1ccccc1 | 310 | 18000 | 130 | 41 | > 10000 | – | – | –
17 | COc1ccc(C[C@H](NC(=O)[C@H](C)NC(=O)CN2CCOCC2)C(=O)N[C@@H](Cc2ccccc2)C(=O)[C@@]2(C)CO2)cc1 | – | 13000 | 145 | 790 | 1300 | 9 to 20 | 1.6 | inhibition (Homo sapiens [7]): Active; inhibition (Homo sapiens [8]): Active; inhibition (Homo sapiens [10]): Active
18 | Cc1ccc(C[C@H](NC(=O)c2nnn(Cc3ccccc3)c2C)B2O[C@@H]3C[C@@H]4C[C@@H](C4(C)C)[C@]3(C)O2)c(C)c1 | 79 | > 20000 | 4.1 | 8500 | 9100 | 2200 | – | Ratio IC50 (Homo sapiens [16]): 2100; IC50 (PBMC [11]): > 10000 nM; IC50 [12]: > 10000 nM; IC50 [15]: 9300 nM; Ratio IC50 (Homo sapiens [17]): > 4800
19 | CC(C)C[C@H](NC(=O)c1cn(-c2ccccc2)nn1)B(O)O | 25 | 4200 | 1.4 | 0.58 | 760 | – | 1300 to 3400 | –
20 | Cc1c(C(=O)N[C@@H](CC(C)C)B(O)O)nnn1Cc1ccccc1 | 290 | > 20000 | 40 | 15 | 7300 | – | – | Ratio IC50 (Homo sapiens [16]): 0.4
21 | CC(C)C[C@H](NC(=O)c1cn(C)nn1)B1O[C@@H]2C[C@@H]3C[C@@H](C3(C)C)[C@]2(C)O1 | 250 | > 20000 | 55 | 9 | 9600 | 174 | – | –
22 | CC(C)C[C@H](NC(=O)c1cc(Cc2ccccc2)on1)B(O)O | 85 | 1400 | 23 | 9.4 | 3000 | – | – | –
